{"source": "patent US20200131669A1", "about": "“CYCLIC PEPTIDE COMPOUND HAVING HIGH MEMBRANE PERMEABILITY, AND LIBRARY CONTAINING SAME” (Chugai Seiyaku Kabushiki Kaisha, priority 2017, published 2020)", "note": "Starred links: 1 amine or outer side, 2 acyl side, 3 side chain; linkers in the order of their positions; H or OH if unused. Positions of bridges follow the written chain, without caps; N, C: chain ends. Non-standard residues stand in square brackets, D forms with d. Residues, ends and D or L forms follow the SMILES beside them. *: point of attachment. NMePhe(3-Cl) = CN[C@@H](Cc1cccc(Cl)c1)C(=O)O; NMehPhe = CN[C@@H](CCc1ccccc1)C(=O)O; X3 = O=C([C@H](CCCCO)N[*:1])[*:2]; NMeF = CN[C@@H](Cc1ccccc1)C(=O)O; NMeGABA = CN(CCCC(=O)[*:2])[*:1]; Butyl(3-Me,3-OH) = CC(C)(O)CC*; CH2CONHtBu = CC(C)(C)NC(=O)C*; NMeL = CN[C@@H](CC(C)C)C(=O)O; NMeV = CN[C@H](C(=O)O)C(C)C; NMeA = CN[C@@H](C)C(=O)O; Piperidide = C1CCN(*)CC1; NBuGly = CCCCNCC(=O)O; Isopentyl = CC(C)CC*; NPrGly = CCCNCC(=O)O; Sar = CNCC(=O)O; tBu = CC(C)(C)*", "data": [{"assay": "Caco-2 membrane permeability, improved method as used in the following Examples (96-well, 20 to 24 h preincubation)", "type": "in vitro ADME", "conditions": "Caco-2, Caco-2", "summary_of_the_method": "(§1)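 Papp (cm/sec) was derived from LC/MS of basal samples collected 180 min after apical dosing in FaSSIF/HBSS pH 6.0 with 1% DMSO, against a basal HBSS pH 7.4 receiver containing 4% BSA. Three-week Caco-2 cultures were first preincubated with compound in DMEM+FaSSIF at 37 °C for 20–24 h.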", "units": {"Papp A→B": "×10⁻⁶ cm/s"}, "values": [{"molecule": "CC(C)C[C@@H]1NC(=O)[C@H](CCc2ccccc2)N(C)C(=O)[C@@H](C(C)C)NC(=O)C[C@@H](C(=O)N2CCCCC2)NC(=O)[C@H](CC(C)C)N(C)C(=O)[C@H](Cc2ccccc2)N(C)C(=O)[C@H](COCCC(C)(C)O)NC(=O)[C@H](CC(C)C)N(C)C(=O)CN(C)C(=O)[C@H]([C@@H](C)O)NC(=O)[C@H](CC(C)C)N(C)C1=O", "note": "[pd438] ([dV][NMehPhe]L[NMeL]T[Sar][NMeL]S(Butyl(3-Me,3-OH))[NMeF][NMeL]D-Piperidide; lactam N-11)", "Papp A→B": 1}, {"molecule": "CC(C)C[C@@H]1NC(=O)[C@H](CC(C)C)N(C)C(=O)C[C@@H](C(=O)N2CCCCC2)NC(=O)[C@H](CC(C)C)N(C)C(=O)CN(C)C(=O)[C@H](CCC(=O)N(C)C)NC(=O)[C@H](CC(C)C)N(C)C(=O)[C@H](Cc2ccccc2)N(C)C(=O)[C@H](CC(C)C)NC(=O)[C@H](Cc2ccccc2)N(C)C(=O)[C@H](CC(C)C)N(C)C1=O", "note": "[pd439] ([NMeL]L[NMeL][NMeF]L[NMeF][NMeL]E(NMe2)[Sar][NMeL]D-Piperidide; lactam N-11)", "Papp A→B": 1}]}, {"assay": "Caco-2 membrane permeability, improved method as used in the following Examples (96-well, 20 to 24 h preincubation)", "type": "in vitro ADME", "conditions": "human, Caco-2, Caco-2", "summary_of_the_method": "as §1", "units": {"Papp A→B at 180 min": "×10⁻⁶ cm/s"}, "values": [{"molecule": "CC(C)CCOC[C@@H]1NC(=O)[C@H](CC(C)C)N(C)C(=O)CN(C)C(=O)[C@H]([C@@H](C)O)NC(=O)[C@H](CC(C)C)N(C)C(=O)[C@H](COCCC(C)(C)O)NC(=O)[C@H](Cc2ccccc2)N(C)C(=O)[C@@H](C(C)C)NC(=O)C[C@@H](C(=O)N2CCCCC2)NC(=O)[C@H](CC(C)C)N(C)C(=O)[C@H](Cc2ccccc2)N(C)C1=O", "note": "[pd433] ([dV][NMeF]S(Butyl(3-Me,3-OH))[NMeL]T[Sar][NMeL]S(Isopentyl)[NMeF][NMeL]D-Piperidide; lactam N-11)", "Papp A→B at 180 min": 1.4}, {"molecule": "CC(C)C[C@@H]1NC(=O)[C@H](Cc2ccccc2)N(C)C(=O)[C@@H](C(C)C)NC(=O)C[C@@H](C(=O)N2CCCCC2)NC(=O)[C@H](CC(C)C)N(C)C(=O)[C@H](Cc2cccc(Cl)c2)N(C)C(=O)[C@H](COCCC(C)(C)O)NC(=O)[C@H](CC(C)C)N(C)C(=O)CN(C)C(=O)[C@H]([C@@H](C)O)NC(=O)[C@H](C(C)C)N(C)C1=O", "note": "[pd434] ([dV][NMeF]L[NMeV]T[Sar][NMeL]S(Butyl(3-Me,3-OH))[NMePhe(3-Cl)][NMeL]D-Piperidide; lactam N-11)", "Papp A→B at 180 min": 1.7}, {"molecule": "CC[C@H](C)[C@@H]1NC(=O)[C@H](C(C)C)N(C)C(=O)CCCN(C)C(=O)C[C@@H](C(=O)N2CCCCC2)NC(=O)[C@H](CC(C)C)N(C)C(=O)[C@H](CC(C)C)N(C)C(=O)[C@H]([C@@H](C)O)NC(=O)[C@H](CC(C)C)N(C)C(=O)[C@H](COCCC(C)(C)O)NC(=O)[C@H](Cc2cccc(Cl)c2)N(C)C(=O)[C@H](Cc2ccccc2)N(C)C1=O", "note": "[pd435] ([NMeGABA][NMeV]I[NMeF][NMePhe(3-Cl)]S(Butyl(3-Me,3-OH))[NMeL]T[NMeL][NMeL]D-Piperidide; lactam N-11)", "Papp A→B at 180 min": 1.4}, {"molecule": "CC(C)C[C@@H]1NC(=O)[C@H](Cc2ccccc2)N(C)C(=O)[C@H](CC(C)C)N(C)C(=O)[C@H](COCCC(C)(C)O)NC(=O)[C@H](C)N(C)C(=O)C[C@@H](C(=O)N2CCCCC2)NC(=O)[C@H](CC(C)C)N(C)C(=O)CN(C)C(=O)[C@H]([C@@H](C)O)NC(=O)[C@H](CC(C)C)N(C)C(=O)[C@H](CCc2ccccc2)N(C)C1=O", "note": "[pd436] ([NMeA]S(Butyl(3-Me,3-OH))[NMeL][NMeF]L[NMehPhe][NMeL]T[Sar][NMeL]D-Piperidide; lactam N-11)", "Papp A→B at 180 min": 1.3}, {"molecule": "CC(C)C[C@@H]1NC(=O)[C@H](C)N(C)C(=O)C[C@@H](C(=O)N2CCCCC2)NC(=O)[C@H](CC(C)C)N(C)C(=O)CN(C)C(=O)[C@H]([C@@H](C)O)NC(=O)[C@H](CC(C)C)N(C)C(=O)[C@H](CCc2ccccc2)N(C)C(=O)[C@H](COCCC(C)(C)O)NC(=O)[C@H](Cc2ccccc2)N(C)C(=O)[C@H](CC(C)C)N(C)C1=O", "note": "[pd437] ([NMeA]L[NMeL][NMeF]S(Butyl(3-Me,3-OH))[NMehPhe][NMeL]T[Sar][NMeL]D-Piperidide; lactam N-11)", "Papp A→B at 180 min": 1.3}, {"molecule": "CC(C)C[C@@H]1NC(=O)[C@H](Cc2ccccc2)N(C)C(=O)[C@H](C)N(C)C(=O)C[C@@H](C(=O)N2CCCCC2)NC(=O)[C@H](CC(C)C)N(C)C(=O)[C@H](CC(C)C)N(C)C(=O)[C@H](COC(C)(C)C)NC(=O)[C@H](CC(C)C)N(C)C(=O)[C@H](C)N(C)C(=O)[C@H](CCC(=O)N(C)C)NC(=O)[C@H](CC(C)C)N(C)C1=O", "note": "[pd440] ([NMeA][NMeF]L[NMeL]E(NMe2)[NMeA][NMeL]S(tBu)[NMeL][NMeL]D-Piperidide; lactam N-11)", "Papp A→B at 180 min": 4}, {"molecule": "CC(C)C[C@@H]1NC(=O)[C@H](Cc2ccccc2)N(C)C(=O)[C@@H](CC(C)C)NC(=O)C[C@@H](C(=O)N2CCCCC2)NC(=O)[C@H](CC(C)C)N(C)C(=O)[C@H](Cc2ccccc2)N(C)C(=O)[C@H](COC(C)(C)C)NC(=O)[C@H](CC(C)C)N(C)C(=O)CN(C)C(=O)[C@H](CCC(=O)N(C)C)NC(=O)[C@H](CC(C)C)N(C)C1=O", "note": "[pd441] ([dL][NMeF]L[NMeL]E(NMe2)[Sar][NMeL]S(tBu)[NMeF][NMeL]D-Piperidide; lactam N-11)", "Papp A→B at 180 min": 1.7}, {"molecule": "CCCCN1CC(=O)N(C)[C@@H](Cc2ccccc2)C(=O)N[C@@H]([C@@H](C)CC)C(=O)N(C)[C@@H](CC(C)C)C(=O)N[C@@H]([C@@H](C)O)C(=O)N(CCC)CC(=O)N(C)[C@@H](Cc2ccccc2)C(=O)N(C)[C@@H](CC(C)C)C(=O)N[C@@H](COCC(=O)NC(C)(C)C)C(=O)N(C)[C@@H](C)C(=O)N[C@H](C(=O)N2CCCCC2)CC1=O", "note": "[pd443] ([NBuGly][NMeF]I[NMeL]T[NPrGly][NMeF][NMeL]S(CH2CONHtBu)[NMeA]D-Piperidide; lactam N-11)", "Papp A→B at 180 min": 1}, {"molecule": "CC(C)C[C@H]1C(=O)N[C@H](C(=O)N2CCCCC2)CC(=O)N(C)[C@@H](C)C(=O)N[C@@H](C(C)C)C(=O)N(C)[C@@H](CC(C)C)C(=O)N(C)[C@@H](Cc2ccccc2)C(=O)N[C@@H](C(C)C)C(=O)N(C)[C@@H](Cc2ccccc2)C(=O)N(C)[C@@H](CC(C)C)C(=O)N[C@@H](CCCCO)C(=O)N(C)CC(=O)N1C", "note": "[pd448] ([NMeA]V[NMeL][NMeF]V[NMeF][NMeL][X3][Sar][NMeL]D-Piperidide; lactam N-11)", "Papp A→B at 180 min": 1.3}, {"molecule": "CC(C)C[C@@H]1NC(=O)[C@H](Cc2ccccc2)N(C)C(=O)[C@@H](CC(C)C)NC(=O)C[C@@H](C(=O)N2CCCCC2)NC(=O)[C@H](C(C)C)N(C)C(=O)[C@H](Cc2ccccc2)N(C)C(=O)[C@H](COC(C)(C)C)NC(=O)[C@H](CC(C)C)N(C)C(=O)CN(C)C(=O)[C@H](CCCCO)NC(=O)[C@H](CC(C)C)N(C)C1=O", "note": "[pd449] ([dL][NMeF]L[NMeL][X3][Sar][NMeL]S(tBu)[NMeF][NMeV]D-Piperidide; lactam N-11)", "Papp A→B at 180 min": 2}]}, {"assay": "Caco-2 membrane permeability, improved method as used in the following Examples (96-well, 20 to 24 h preincubation)", "type": "in vitro ADME", "conditions": "human; Papp, Caco-2 membrane permeability, improved method; read-out: Caco-2", "summary_of_the_method": "as §1", "units": {"Papp A→B at 180 min": "×10⁻⁶ cm/s"}, "values": [{"molecule": "CC(C)C[C@H]1C(=O)N[C@@H](C(C)C)C(=O)N(C)[C@@H](Cc2ccccc2)C(=O)N(C)[C@@H](Cc2ccccc2)C(=O)N[C@@H](COC(C)(C)C)C(=O)N(C)[C@@H](CC(C)C)C(=O)N[C@@H](CCCCO)C(=O)N(C)[C@@H](CC(C)C)C(=O)N(C)[C@@H](CC(C)C)C(=O)N[C@H](C(=O)N2CCCCC2)CC(=O)N(C)CCCC(=O)N1C", "note": "[pd446] ([NMeGABA][NMeL]V[NMeF][NMeF]S(tBu)[NMeL][X3][NMeL][NMeL]D-Piperidide; lactam N-11)", "Papp A→B at 180 min": 1.3}]}]}
